Values quoted from earlier work in patent publication US20110123642A1 (priority 2008, published 2011).

| SMILES | pKa | pKa^1 | pKa^2 | pKa^3 | pKa^4 |
| --- | --- | --- | --- | --- | --- |
| O=C(O)CN(CCN(CC(=O)O)CC(=O)O)CC(=O)O [EDTA, reference compound] | 10.2 |  |  |  |  |
| O=C([O-])CC[C@@H](C(=O)[O-])N(CC(=O)[O-])CC(=O)[O-].[Na+].[Na+].[Na+].[Na+] [GLDA, L-glutamic acid-N,N-diacetic acid, tetrasodium salt] | 9.4 | 9.4 | 5.0 | 3.5 | 2.6 |
| O=C(O)CN(CC(=O)O)CC(=O)O [NTA, reference compound] | 9.7 |  |  |  |  |
